In patent US7662968B2, “Process for preparing lansoprazole” (KRKA tovarna zdravil, d.d.., priority 2005, dated 2010):
“And” between values parts separate entries of the source, which are not always exact repeats. Identical values can stand only once.

Experiments:
[1] = Release of lansoprazole from pellets (dissolution, Ph. Eur. Paddle method); type: physicochemical; settings: paddle 100 rpm, after one hour in artificial gastric juice pH 1.2, FIG. 1; for release of lansoprazole from pellets (comparison in words): phosphate buffer pH 6.8, 37° C.
Description: The release of lansoprazole was spectrophotometrically determined using Hewlett Packard 8452 A Diode array spectrophotometer and automatic sampling system Multicell Transport System. Dissolution profiles were obtained at 37° C. using 900 ml phosphate buffer solution having pH 6.8 and Ph. Eur. Paddle method (100 rpm). Before analysis, the pellet samples were treated with artificial gastric juice (500 ml) having a pH of 1.2 for one hour, washed and quantitatively transferred into the phosphate buffer. […] Preferably more than 80%, more preferably more than 85% and most preferred more than 90% of lansoprazole are released from the compositions according to the invention within 30 minutes.
If a lansoprazole prepared according to example 4 having a BET-surface area of 4.76 m^2/g is used, more than 90% of the drug is released within the first 30 minutes (upper curve).

[2] = BET-surface area determination (nitrogen desorption, BET FlowSorb II 2300); type: physicochemical; settings: 30 vol. % nitrogen / 70 vol. % helium at 77 K
Description: Unless otherwise noted, the BET-surface areas of the produced lansoprazole are determined by calculation from desorption data of nitrogen obtained on a BET FlowSorb II 2300 (Micromeritics Instrument Corp., USA) using a mixture of 30 vol. % nitrogen and 70 vol. % helium at 77 K.

[3] = lansoprazole form A as obtained after purification and drying

SMILES	release of lansoprazole from pellets (comparison in words) [1]	BET-surface area [2, 3]	drug released ([1]; pellets prepared according to Example 8, within the first 30 minutes, 900 ml phosphate buffer pH 6.8, 37° C.)	release of lansoprazole from pellets (comparison in words) ([1]; listed as lansoprazole having a BET-surface area of 4.67 m^2/g)	BET-surface area ([2]; lansoprazole form A further milled) [m^2/g]
Cc1c(OCC(F)(F)F)ccnc1C[S+]([O-])c1nc2ccccc2[nH]1 (centres unmarked) [Example 5, 2-[[[3-methyl-4-(2,2,2-trifluoroethoxy)-2-pyridinyl]methyl]sulfinyl]-1H-benzimidazole]	clearly smaller release	1.0 m^2/g and 1.00 m^2/g	–	–	–
Cc1c(OCC(F)(F)F)ccnc1C[S+]([O-])c1nc2ccccc2[nH]1 (centres unmarked) [Example 4, 2-[[[3-methyl-4-(2,2,2-trifluoroethoxy)-2-pyridinyl]methyl]sulfinyl]-1H-benzimidazole]	–	4.67 m^2/g and 4.76 m^2/g	more than 90%	clearly faster	–
Cc1c(OCC(F)(F)F)ccnc1C[S+]([O-])c1nc2ccccc2[nH]1 (centres unmarked) [Example 3, 2-[[[3-methyl-4-(2,2,2-trifluoroethoxy)-2-pyridinyl]methyl]sulfinyl]-1H-benzimidazole]	clearly smaller release	0.25 m^2/g	–	–	0.87
